Reference: patent publication US7008531B2, “Treatment of circulating water systems” (Arch Chemicals Inc., priority 2000, dated 2006)

Legend:
[1] = test system: field isolated mustard algae; assay: Remedial laboratory study on algae (flask test, optical density after 5 days); format: cell-based; conditions: for Difference in performance between octadecylamine and dimethyloctadecylamine: 2.5 ppm with PHMB 4.0 ppm, summary of Table 2; for Comments (algae control) / Average Optical Density: Table 2, 5 days; for Average Optical Density: initial absorbance 0.10, <0.2 = algistatic or algicidal
Protocol: Remedial efficacy was evaluated in this example using field isolated mustard algae.
Studies were conducted in 125 ml flasks containing 6 mm borosilicate glass beads (50) and Jaworski's medium (50 ml). The flasks were inoculated with pooled cultures of mustard algae to achieve an initial absorbance of 0.10, as measured using a Milton Roy Spec 20 Spectrophotometer. […] The adjuvants identified in Table 2 were added at levels of 1.25 and 2.5 ppm active ingredient. Busan 20/20™ identified in Table 3 was added at levels of 0.625, 1.25, 2.5 and 5.0 ppm. The performance of the adjuvants were compared to the controls with and without PHMB. The flasks were closed using translucent caps, illuminated for 8 hours using a combination of fluorescent grow lamps and standard incandescent lamps each day and incubated at 80° F. for a period of 5 days. Algal growth was measured after 5 days using a Milton Roy Spec 20 spectrophotometer. The higher the optical density the heavier the growth.

[2] = test system: field isolated mustard algae; assay: Preventative laboratory study on algae (flask test, visual growth score); format: cell-based; conditions: for Average Visual Score: 10 days, 0-4 scale, any score >1 is a preventative failure
Protocol: In preventative laboratory treatment studies, growth conditions are optimised to support a bloom. An experimental flask is prepared with a medium having optimised growth conditions to support a bloom, the medium in the flask is treated with a prescribed concentration of a test formulation, and then inoculated with a low concentration of a bloom-forming organism. The medium is monitored for a period of time to observe whether the formulation is effective at preventing an algal bloom.
These studies used the most problematic organisms, i.e. field isolated mustard algae.
The Jawaorski's medium was modified by the addition of 4 ppm polyhexamethylene biguanide (PHMB) (ex Avecia Inc.) to inhibit the growth of the bacteria present in the algal isolates. The inocula were harvested by aseptic vacuum filtration and the concentration of algal cell masses were combined (“pooled”) and redispersed in a aseptic medium to provide a concentrated pooled inoculum. The amount of inoculum used was varied to achieve an initial optical density of 0.010 in the test flasks. The optical density was determined using a Milton Roy Spec 20 spectrophotometer.
[…] Each flask was then inoculated with a prescribed amount of the pooled inoculum, so that the liquid in the flask had no visible green cast.

[3] = Effect of adjuvant on water clarity (simulated swimming pool water, Hach Turbidimeter and visual inspection); format: physicochemical; conditions: for Turbidity / Visual Observations: simulated pool water with PHMB 6-12 ppm, pH 7.2-7.8, circulated 24 hours; for Turbidity: 70±3° F.; for Effect on water clarity: summary of Table 4, simulated pool water with PHMB
Protocol: Six 10 gallon fish aquariums equipped with a heater and a recirculating pump (to simulate a swimming pool environment) were filled with simulated swimming pool water containing polyhexamethylene biguanide (PHMB) comprising:
The pH of the tanks was maintained between 7.2 and 7.8 and the water temperature was maintained at 70±3° F. After the chemical additions the water was circulated for 24 hours. The water in each tank was then visually inspected and tested for turbidity using a Hach Turbidimeter.

[4] = adjuvant 1.25 ppm + PHMB 4.0 ppm
[5] = adjuvant 2.5 ppm + PHMB 4.0 ppm

Compound	Difference in performance between octadecylamine and dimethyloctadecylamine [1]	Comments (algae control) [1, 4]	Average Optical Density [1, 4]	Average Optical Density [1, 5]	Average Visual Score [2, 5]	Average Visual Score ([2]; adjuvant 5.0 ppm + PHMB 4.0 ppm)	Average Visual Score ([2]; adjuvant 10.0 ppm + PHMB 4.0 ppm)	Average Visual Score ([2]; adjuvant 15.0 ppm + PHMB 4.0 ppm)	Preventing the field isolated mustard algae outbreak, compared with PHMB alone ([2]; in combination with PHMB, summary of Table 1)	Comments (algae control) [1, 5]	Turbidity ([3]; adjuvant 2.5 ppm) [NTU]	Visual Observations ([3]; adjuvant 2.5 ppm)	Turbidity ([3]; adjuvant 5.0 ppm) [NTU]	Visual Observations ([3]; adjuvant 5.0 ppm)	Turbidity ([3]; adjuvant 10.0 ppm) [NTU]	Visual Observations ([3]; adjuvant 10.0 ppm)	Effect on water clarity [3]
CCCCCCCCCCCCCCCCCCN(C)C [Dimethyloctadecylamine, dimethyloctadecylamine]	no significant difference	Control	0.12	0.07													
CCCCCCCCCCCCN [Dodecylamine, dodecylamine]			0.08	0.12	0	0	0	0	effectiveness	Control	2.7	Clear	1.8	Clear	2.5	Clear	no effect on water clarity
CCCCCCCCCCCCCCCCCCN [Octadecylamine, octadecylamine]	no significant difference	Control	0.16	0.08													
CCCCCCCCCCCCCCN [Tetradecylamine, reference compound]													10.1	Cloudy	19.0	Cloudy	resulted in water turbidity
